# According to patent US20240101570A1 (AMGEN INC., priority 2020, published 2024):
# pIC50: −log10 of the molar value.
# How the values were obtained:
# HCT116 MTAP null cells = assay: HCT116 MTAP null cell proliferation / viability (CellTiter-Glo, 6 days); type: cell-based; conditions: HCT116-MTAP null, 144 h, HCT116 MTAP null cells, 6 days, CellTiter-Glo; read-out: HCT-116 MTAP null IC50
# In short: (§1)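 Viability read by CellTiter-Glo after 6-day compound exposure of MTAP-null and wild-type HCT116 cells grown in RPMI 1640 with 10% FBS. Dosing used 1:3 steps from 1 or 10 μM (8-9 points) or 1:2 steps from 10 or 50 μM (22 points); IC50 taken where fitted curve crosses 50% of control.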
# HCT116 WT cells = assay: HCT116 WT cell proliferation / viability (CellTiter-Glo, 6 days); type: cell-based; conditions: Homo sapiens, HCT-116, 144 h, HCT116 WT cells, 6 days, CellTiter-Glo; read-out: HCT-116 WT IC50
# In short: as §1
SMILES,pIC50 (HCT116 MTAP null cells),pIC50 (HCT116 WT cells)
"CC(C)N(Cc1ccc(C(F)(F)F)nn1)C(=O)c1ccc2nc(N)c3c(c2c1)CO[C@@H]3C [Example 393, (3R)-4-amino-3-methyl-N-(2-propanyl)-N-((6-(trifluoromethyl)-3-pyridazinyl)methyl)-1,3-dihydrofuro[3,4-c]quinoline-8-carboxamide]",6.95,5.16
"CC(C)N(Cc1ccc(C(F)(F)F)nn1)C(=O)c1cc2c3c(c(N)nc2cc1Cl)COC3 [Example 394, 4-amino-7-chloro-N-(2-propanyl)-N-((6-(trifluoromethyl)-3-pyridazinyl)methyl)-1,3-dihydrofuro[3,4-c]quinoline-8-carboxamide]",7.52,6.08
"Nc1nc2cc(Cl)c(C(=O)N(Cc3ccc(C(F)(F)F)cn3)C34CC(C3)C4)cc2c2c1COC2 [Example 395, 4-amino-N-(bicyclo[1.1.1]pentan-1-yl)-7-chloro-N-((5-(trifluoromethyl)-2-pyridinyl)methyl)-1,3-dihydrofuro[3,4-c]quinoline-8-carboxamide]",7.51,6.27
"C[C@H]1OCc2c1c(N)nc1cnc(C(=O)N(Cc3ccc(C(F)(F)F)cn3)CC3CC3)cc21 [Example 396, (3R)-4-amino-N-(cyclopropylmethyl)-3-methyl-N-((5-(trifluoromethyl)-2-pyridinyl)methyl)-1,3-dihydrofuro[3,4-c][1,7]naphthyridine-8-carboxamide]",7.70,6.20
"CCOc1ccc(CN(C(=O)c2cc3c4c(c(N)nc3cn2)[C@@H](C)OC4)[C@H](C)COC)nn1 [Example 397, (3R)-4-amino-N-((6-ethoxy-3-pyridazinyl)methyl)-N-((2R)-1-methoxy-2-propanyl)-3-methyl-1,3-dihydrofuro[3,4-c][1,7]naphthyridine-8-carboxamide]",7.26,5.96
"CC1(CN(Cc2ccc(C(F)(F)F)cn2)C(=O)c2cc3c4c(c(N)nc3cn2)COC4)CC1 [Example 398, 4-amino-N-((1-methylcyclopropyl)methyl)-N-((5-(trifluoromethyl)-2-pyridinyl)methyl)-1,3-dihydrofuro[3,4-c][1,7]naphthyridine-8-carboxamide]",7.31,5.86
"CN(Cc1ccc(C(F)(F)F)cc1)C(=O)c1ccc2nc(N)c3c(c2c1)COC3 [Example 399, 4-amino-N-methyl-N-(4-(trifluoromethyl)benzyl)-1,3-dihydrofuro[3,4-c]quinoline-8-carboxamide]",6.41,5.35
"CN(Cc1ccc(C(F)(F)F)nc1)C(=O)c1ccc2nc(N)c3c(c2c1)COC3 [Example 400, 4-amino-N-methyl-N-((6-(trifluoromethyl)-3-pyridinyl)methyl)-1,3-dihydrofuro[3,4-c]quinoline-8-carboxamide]",6.01,< 5.00
"CC(C)N(Cc1ccc(C2CC2)nc1)C(=O)c1cc2c3c(c(N)nc2cc1Cl)COC3 [Example 401, 4-amino-7-chloro-N-((6-cyclopropyl-3-pyridinyl)methyl)-N-(2-propanyl)-1,3-dihydrofuro[3,4-c]quinoline-8-carboxamide]",7.08,5.51
"CC(C)N(Cc1ccc(C2CC2)nc1)C(=O)c1cc2c3c(c(N)nc2cn1)[C@H](C)OC3 [Example 403, (3S)-4-amino-N-((6-cyclopropyl-3-pyridinyl)methyl)-3-methyl-N-(2-propanyl)-1,3-dihydrofuro[3,4-c][1,7]naphthyridine-8-carboxamide]",≤ 5.00,< 5.00
"CC(C)N(Cc1ccc(C#N)cn1)C(=O)c1cc2c3c(c(N)nc2cn1)[C@@H](C)OC3 [Example 404, (3R)-4-amino-N-((5-cyano-2-pyridinyl)methyl)-3-methyl-N-(2-propanyl)-1,3-dihydrofuro[3,4-c][1,7]naphthyridine-8-carboxamide]",6.74,4.94
"C[C@H]1OCc2c1c(N)nc1cnc(C(=O)N(Cc3ccc(C(F)(F)F)nn3)C3CC3)cc21 [Example 405, (3R)-4-amino-N-cyclopropyl-3-methyl-N-((6-(trifluoromethyl)-3-pyridazinyl)methyl)-1,3-dihydrofuro[3,4-c][1,7]naphthyridine-8-carboxamide]",6.44,< 5.00
"CC(C)N(Cc1ccc(C2CC2)cn1)C(=O)c1cc2c3c(c(N)nc2cn1)[C@@H](C)OC3 [Example 406, (3R)-4-amino-N-((5-cyclopropyl-2-pyridinyl)methyl)-3-methyl-N-(2-propanyl)-1,3-dihydrofuro[3,4-c][1,7]naphthyridine-8-carboxamide]",7.01,5.38
"CC(C)N(Cc1ccc(C2CC2)cn1)C(=O)c1cc2c3c(c(N)nc2cn1)[C@H](C)OC3 [Example 407, (3S)-4-amino-N-((5-cyclopropyl-2-pyridinyl)methyl)-3-methyl-N-(2-propanyl)-1,3-dihydrofuro[3,4-c][1,7]naphthyridine-8-carboxamide]",5.44,< 5.00

# Next, values leading:
pIC50 (HCT116 MTAP null cells),pIC50 (HCT116 WT cells),SMILES
7.07,5.47,"CCN(Cc1ccc(C(F)(F)F)cn1)C(=O)c1cc2c3c(c(N)nc2cn1)[C@@H](C)OC3 [Example 408, (3R)-4-amino-N-ethyl-3-methyl-N-((5-(trifluoromethyl)-2-pyridinyl)methyl)-1,3-dihydrofuro[3,4-c][1,7]naphthyridine-8-carboxamide]"
7.25,5.23,"CCOc1ccc(CN(C(=O)c2cc3c4c(c(N)nc3cn2)[C@@H](C)OC4)C23CC(C2)C3)nn1 [Example 409, (3R)-4-amino-N-(bicyclo[1.1.1]pentan-1-yl)-N-((6-ethoxy-3-pyridazinyl)methyl)-3-methyl-1,3-dihydrofuro[3,4-c][1,7]naphthyridine-8-carboxamide]"
7.06,5.49,"COC[C@@H](C)N(Cc1ccc(Br)nn1)C(=O)c1cc2c3c(c(N)nc2cn1)[C@@H](C)OC3 [Example 410, (3R)-4-amino-N-((6-bromo-3-pyridazinyl)methyl)-N-((2R)-1-methoxy-2-propanyl)-3-methyl-1,3-dihydrofuro[3,4-c][1,7]naphthyridine-8-carboxamide]"
6.74,4.87,"C[C@H]1OCc2c1c(N)nc1cnc(C(=O)N(C)Cc3ccc(C(F)(F)F)cn3)cc21 [Example 411, (3R)-4-amino-N,3-dimethyl-N-((5-(trifluoromethyl)-2-pyridinyl)methyl)-1,3-dihydrofuro[3,4-c][1,7]naphthyridine-8-carboxamide]"
6.40,4.59,"CC(C)N(Cc1ccc(C2CC2)nc1)C(=O)c1cc2c3c(c(N)nc2cn1)[C@@H](C)OC3 [Example 412, (3R)-4-amino-N-((6-cyclopropyl-3-pyridinyl)methyl)-3-methyl-N-(2-propanyl)-1,3-dihydrofuro[3,4-c][1,7]naphthyridine-8-carboxamide]"
6.06,4.69,"COC(=O)N1CCN(c2ccc(CN(C)C(=O)c3ccc4nc(N)c5c(c4c3)COC5)nc2)CC1 [Example 413, methyl 4-(6-((((4-amino-1,3-dihydrofuro[3,4-c]quinolin-8-yl)carbonyl)(methyl)amino)methyl)-3-pyridinyl)-1-piperazinecarboxylate]"
5.23,< 4.30,"C[C@@H]1OCc2c1c(N)nc1cnc(C(=O)N(C)Cc3ccc(C4CC4)cn3)cc21 [Example 414, (3S)-4-amino-N-((5-cyclopropyl-2-pyridinyl)methyl)-N,3-dimethyl-1,3-dihydrofuro[3,4-c][1,7]naphthyridine-8-carboxamide]"
6.35,4.60,"C[C@H]1OCc2c1c(N)nc1cnc(C(=O)N(C)Cc3ccc(C4CC4)cn3)cc21 [Example 415, (3R)-4-amino-N-((5-cyclopropyl-2-pyridinyl)methyl)-N,3-dimethyl-1,3-dihydrofuro[3,4-c][1,7]naphthyridine-8-carboxamide]"
7.21,5.08,"C[C@H]1OCc2c1c(N)nc1cnc(C(=O)N(Cc3ccc(C4CC4)cn3)C3CC3)cc21 [Example 416, (3R)-4-amino-N-cyclopropyl-N-((5-cyclopropyl-2-pyridinyl)methyl)-3-methyl-1,3-dihydrofuro[3,4-c][1,7]naphthyridine-8-carboxamide]"
5.25,4.75,"C[C@@H]1OCc2c1c(N)nc1cnc(C(=O)N(Cc3ccc(C4CC4)cn3)C3CC3)cc21 [Example 417, (3S)-4-amino-N-cyclopropyl-N-((5-cyclopropyl-2-pyridinyl)methyl)-3-methyl-1,3-dihydrofuro[3,4-c][1,7]naphthyridine-8-carboxamide]"
6.77,5.20,"Nc1nc2cnc(C(=O)N(Cc3ccc(OC(F)F)nn3)CC3CC3)cc2c2c1COC2 [Example 418, 4-amino-N-(cyclopropylmethyl)-N-((6-(difluoromethoxy)-3-pyridazinyl)methyl)-1,3-dihydrofuro[3,4-c][1,7]naphthyridine-8-carboxamide]"
6.82,5.42,"CCN(Cc1ccc(C(F)(F)F)cn1)C(=O)c1cc2c3c(c(N)nc2cc1F)COC3 [Example 419, 4-amino-N-ethyl-7-fluoro-N-((5-(trifluoromethyl)-2-pyridinyl)methyl)-1,3-dihydrofuro[3,4-c]quinoline-8-carboxamide]"
6.61,5.08,"CCN(Cc1ccc(C(F)(F)F)cn1)C(=O)c1cc2c3c(c(N)nc2cc1Cl)COC3 [Example 420, 4-amino-7-chloro-N-ethyl-N-((5-(trifluoromethyl)-2-pyridinyl)methyl)-1,3-dihydrofuro[3,4-c]quinoline-8-carboxamide]"
6.94,5.00,"CCN(Cc1ccc(Cl)cn1)C(=O)c1ccc2nc(N)c3c(c2c1)CO[C@@H]3C [Example 421, (3R)-4-amino-N-((5-chloro-2-pyridinyl)methyl)-N-ethyl-3-methyl-1,3-dihydrofuro[3,4-c]quinoline-8-carboxamide]"
